According to patent US7981838B2, “Defoliant” (Bayer CropScience AG, priority 2007, dated 2011):

Test system: Cotton plants of the cultivar "Linda"
Experiment: Leaf drop (defoliation) test on cotton plants in climatized chamber, spray application
Assay type: in vivo
Settings: 300 l/ha water
Procedure: A water application rate of 300 l/ha was initially charged. The components herbicide and adjuvant were then added with stirring at the application rates and in the manner stated in table 1, such that a homogeneous spray liquor was formed. Here, the active ingredients were employed as suspension concentrates. The adjuvant used was Agrotin® (Bayer CropScience).
Cotton seeds of the cultivar “Linda” were sown at a depth of 1 cm and cultivated in a climatized chamber (16 h of light, temperature during the day: 26° C., at night: 20° C.) until they had reached the 8-10 leaf stage.
The plants were treated on a laboratory spray track with spray liquors of thidiazuron and thidiazuron with combination partners. The water application rate for the spray application was 300 l/ha. After the treatment, the plants were returned to the climatized chamber.
1, 2 and 4 weeks after the application, the leaf drop effect was evaluated according to a scale from 0 to 100%: • 0%=no noticeable effect compared to untreated plants • 100%=all leaves have dropped. 2.2 Results for the Combinations of (A) TDZ with (B) Cyprosulfamide

[1] = Table 2, dose 200 g of a.i./ha, 0.2% by weight of Agrotin added
[2] = Table 2, dose 25 g of a.i./ha, 0.2% by weight of Agrotin added

SMILES	Leaf drop [%] 2 weeks after application (Table 1, dose 100 g of a.i./ha, 1 l of Agrotin added, scale 0-100%)	Leaf drop [%] 2 weeks after application (Table 1, dose 200 g of a.i./ha, 1 l of Agrotin added, scale 0-100%)	Leaf drop [%] 1 week after application [1]	Leaf drop [%] 2 weeks after application [1]	Leaf drop [%] 4 weeks after application [1]	Leaf drop [%] 2 weeks after application (Table 1, dose 35 g of a.i./ha, 1 l of Agrotin added, scale 0-100%)	Leaf drop [%] 1 week after application [2]	Leaf drop [%] 2 weeks after application [2]	Leaf drop [%] 4 weeks after application [2]
COc1ccccc1C(=O)NS(=O)(=O)c1ccc(C(=O)NC2CC2)cc1 [Cyprosulfamide, 4-cyclopropylaminocarbonyl-N-(2-methoxybenzoyl)benzenesulfonamide]	7%	0%	0%	0%	0%	–	–	–	–
O=C(Nc1ccccc1)Nc1cnns1 [TDZ, thidiazuron]	–	–	–	–	–	67%	37%	56%	63%
